Results as given in patent publication US20050124699A1, “Drugs for treating or preventing disorders of corneal and/or conjunctival epithelial cells” (WAKAMOTO PHARMACEUTICAL CO., LTD., priority 2002, published 2005).
Where two headings read alike, the source gives them in different places.

Tests used:
[1] = system: SV40 immortalized human corneal epithelial cell strain (HCEC)
Experimental: (§1) Cells Used: The corneal cell used herein was SV40 immortalized human corneal epithelial cell strain (HCEC) (Araki-Sasaki et al., IOVS, 1995, 36:614-621) and the conjunctival cell used herein was Chang's human conjunctival epithelial cell strain (CCL-20.2) (ATC CCCL-20.2).
(§2) Experiments: The cells were cultivated to a density of 5×10^4 cells/mL in a growth medium containing 10% serum, inoculated in a 96-well multiplate in an amount of 100 μL/well and cultivated at 37° C. overnight. After the cultivation thereof to a confluent of 30 to 50%, the culture medium was dissolved in a fresh culture medium, followed by the addition of stepwise diluted MS and further diclofenac sodium and the subsequent cultivation at 37° C. for 24 hours. After the cultivation, each well was washed, followed by the addition of a fresh culture medium (100 μL/well) and WST-8 (10 μL/well; Cell Counting Kit-8 available from DOJIN Chemical Co., Ltd.), subsequent cultivation for 1.5 hour and the determination of the absorbance at 450-660 nm to thus calculate the viable cell count.
(§3) Method for Evaluating Toxicity: A test group free of any candidate compound was used as a negative control, the absorbance thereof was assumed to be 100% and a dose-correlation curve was prepared, which was expressed as the cell survival rates as a function of the concentration of each test substance.

[2] = system: Chang's human conjunctival epithelial cell strain (CCL-20.2); assay type: cell-based
Experimental: as §1, §2, §3

[3] = system: corneal epithelial cells; conditions: cited from earlier work; for effect on healing of the damaged area of the epithelium: addition to the monolayer culture
[4] = system: corneal epithelial cells; conditions: cited from earlier work
[5] = system: corneal epithelial cells; conditions: cultivation of the epithelial cells; cited from earlier work
[6] = system: epithelial cells of lenses; conditions: cited from earlier work
[7] = MS 0.01 μM + diclofenac sodium 0.25 mM
[8] = MS 0.01 μM + diclofenac sodium 0.5 mM
[9] = MS 0.01 μM, diclofenac sodium 0 mM
[10] = MS 0.1 μM + diclofenac sodium 0.25 mM
[11] = MS 0.1 μM + diclofenac sodium 0.5 mM
[12] = MS 0.1 μM, diclofenac sodium 0 mM
[13] = MS 1 μM + diclofenac sodium 0.25 mM
[14] = MS 1 μM + diclofenac sodium 0.5 mM
[15] = MS 1 μM, diclofenac sodium 0 mM
[16] = MS 10 μM + diclofenac sodium 0.25 mM
[17] = MS 10 μM + diclofenac sodium 0.5 mM
[18] = MS 10 μM, diclofenac sodium 0 mM
[19] = MS 100 μM + diclofenac sodium 0.25 mM
[20] = MS 100 μM + diclofenac sodium 0.5 mM
[21] = MS 100 μM, diclofenac sodium 0 mM
[22] = added together with diclofenac sodium
[23] = diclofenac sodium 0.25 mM, MS 0 μM, 24 hours
[24] = diclofenac sodium 0.5 mM, MS 0 μM, 24 hours

## CCCCC(C)(O)C/C=C/[C@H]1[C@H](O)CC(=O)[C@@H]1CCCCCCC(=O)OC (mixture of isomers) [Misoprostol]
[1]; [7]
  cell survival rate (% of negative control): 69.9 ± 8.3%
[1]; [8]
  cell survival rate (% of negative control): 59.2 ± 10.4%
[1]; MS 0.01 μM + diclofenac sodium 1 mM
  cell survival rate (% of negative control): 21.1 ± 9.9%
[1]; [9]
  cell survival rate (% of negative control): 87.2 ± 13.2%
[1]; [10]
  cell survival rate (% of negative control): 72.5 ± 12.6%
[1]; [11]
  cell survival rate (% of negative control): 61.6 ± 13.6%
[1]; MS 0.1 μM + diclofenac sodium 1 mM
  cell survival rate (% of negative control): 22.2 ± 8.3%
[1]; [12]
  cell survival rate (% of negative control): 98.9 ± 20.4%
[1]; [13]
  cell survival rate (% of negative control): 73.1 ± 11.7%
[1]; [14]
  cell survival rate (% of negative control): 68.8 ± 17.1%
[1]; MS 1 μM + diclofenac sodium 1 mM
  cell survival rate (% of negative control): 22.4 ± 8.0%
[1]; [15]
  cell survival rate (% of negative control): 99.1 ± 22.3%
[1]; [16]
  cell survival rate (% of negative control): 69.6 ± 10.5%
[1]; [17]
  cell survival rate (% of negative control): 68.4 ± 13.4%
[1]; MS 10 μM + diclofenac sodium 1 mM
  cell survival rate (% of negative control): 22.6 ± 9.5%
[1]; [18]
  cell survival rate (% of negative control): 102.4 ± 24.5%
[1]; [19]
  cell survival rate (% of negative control): 31.7 ± 8.8%
[1]; [20]
  cell survival rate (% of negative control): 7.2 ± 4.5%
[1]; MS 100 μM + diclofenac sodium 1 mM
  cell survival rate (% of negative control): −1.3 ± 1.3%
[1]; [21]
  cell survival rate (% of negative control): 99.2 ± 30.7%
[2]; MS 0.01 μM + diclofenac sodium 0.125 mM
  cell survival rate (% of negative control): 91.1 ± 8.1%
[2]; [7]
  cell survival rate (% of negative control): 42.6 ± 4.9%
[2]; [8]
  cell survival rate (% of negative control): 33.1 ± 7.4%
[2]; [9]
  cell survival rate (% of negative control): 93.0 ± 14.8%
[2]; MS 0.1 μM + diclofenac sodium 0.125 mM
  cell survival rate (% of negative control): 97.1 ± 4.5%
[2]; [10]
  cell survival rate (% of negative control): 45.0 ± 6.7%
[2]; [11]
  cell survival rate (% of negative control): 34.2 ± 9.3%
[2]; [12]
  cell survival rate (% of negative control): 98.6 ± 20.2%
[2]; MS 1 μM + diclofenac sodium 0.125 mM
  cell survival rate (% of negative control): 96.4 ± 8.4%
[2]; [13]
  cell survival rate (% of negative control): 44.0 ± 6.4%
[2]; [14]
  cell survival rate (% of negative control): 34.4 ± 12.2%
[2]; [15]
  cell survival rate (% of negative control): 104.0 ± 26.6%
[2]; MS 10 μM + diclofenac sodium 0.125 mM
  cell survival rate (% of negative control): 97.8 ± 9.6%
[2]; [16]
  cell survival rate (% of negative control): 46.4 ± 7.3%
[2]; [17]
  cell survival rate (% of negative control): 33.7 ± 9.4%
[2]; [18]
  cell survival rate (% of negative control): 99.5 ± 22.2%
[2]; MS 100 μM + diclofenac sodium 0.125 mM
  cell survival rate (% of negative control): 55.4 ± 14.7%
[2]; [19]
  cell survival rate (% of negative control): 31.5 ± 7.4%
[2]; [20]
  cell survival rate (% of negative control): 28.7 ± 6.4%
[2]; [21]
  cell survival rate (% of negative control): 86.3 ± 12.0%
[2]; human, 24 h
  concentration at which MS per se had a cytotoxic effect: 100 µM

## CCCCC(C)(C)[C@H](O)/C=C/[C@H]1[C@H](O)CC(=O)[C@@H]1C/C=C\CCCC(=O)O [16,16-dimethyl prostaglandin E2]
[3]; added alone
  effect on healing of the damaged epithelium: does not show any effect on the healing of the damaged corneal epithelium
[3]; [22]
  effect on healing of the damaged epithelium: does not show any effect on the healing of the damaged corneal epithelium

## O=C(O)Cc1ccccc1Nc1c(Cl)cccc1Cl [Diclofenac Sodium, diclofenac sodium]
[4]; added simultaneously with EGF
  effect on epithelium extension promoted by EGF: inhibit the epithelium extension-promoting effect due to the EGF
[4]; agent alone
  effect on extension of the corneal epithelial cells: does not affect the extension of the corneal epithelial cells
[5]
  effect on proliferation of the epithelium: do not affect the proliferation of the epithelium
[6]; 25, 50 and 100 μM added to the culture medium
  effect on proliferation of lens epithelial cells: control of the proliferation of the epithelial cells
[3]
  effect on healing of the damaged area of the epithelium: would inhibit the damaged epithelium-healing
[1]; 0.25 mM, 0.5 mM or 1 mM, dose-dependent
  effect on growth of the corneal epithelial cells: inhibits the growth of the corneal epithelial cells
[1]; [23]
  cell survival rate (% of negative control): 56.9 ± 8.7%
[1]; [24]
  cell survival rate (% of negative control): 48.2 ± 6.7%
[1]; diclofenac sodium 1 mM, MS 0 μM, 24 hours
  cell survival rate (% of negative control): 17.3 ± 5.4%
[2]; diclofenac sodium 0.125 mM, MS 0 μM, 24 hours
  cell survival rate (% of negative control): 74.0 ± 10.0%
[2]; [23]
  cell survival rate (% of negative control): 37.8 ± 5.7%
[2]; [24]
  cell survival rate (% of negative control): 29.3 ± 5.6%

## CCCCC[C@H](O)/C=C/[C@H]1[C@H](O)CC(=O)[C@@H]1C/C=C\CCCC(=O)O [PGE2, prostaglandin E2]
[6]; 1, 10, 50 and 100 μM added to the culture medium
  effect on growth of lens epithelial cells: permits the growth of the epithelial cells

## CC(C)OC(=O)CCC/C=C\C[C@@H]1[C@@H](CC[C@@H](O)CCc2ccccc2)[C@H](O)C[C@@H]1O [latanoprost]
[3]; added alone
  effect on healing of the damaged epithelium: any such effect cannot be obtained
[3]; [22]
  effect on healing of the damaged epithelium: can recover the healing of the damaged epithelium

## EGF: epithelium growth factor (EGF)
[3]
  effect on healing of the damaged area of the epithelium: would promote the healing of the wound on the damaged area
